Experimental findings from ChEMBL document CHEMBL1201862, “PubChem BioAssay data set” (2004) are described below.

Test systems include SNB-19; HCC 2998; HCT-15; M14; OVCAR-3; OVCAR-5; KM12; CAKI-1; MOLT-4; K562; SW-620; ACHN; MDA-MB-231; SN12C; HOP-92; NCI-H23; A498; Malme-3M; UACC-62; SK-MEL-2.
Experiment in all cases: NCI tumour cell line growth inhibition, 48 h

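48-hour exposure; five concentrations; linearly interpolated endpoints. GI50: concentration for 50% inhibition of growth.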 Active and inactive are the calls of the source. Cut-off read from the data, not from the text of the source: active = GI50 up to about 1.1 µM and inactive = higher.

On to `CCC1(O)C(=O)OCc2c1cc1n(c2=O)Cc2cc3c(N)cccc3nc2-1` (stereo not given) [RS-9-Aminocamptothecin], for which the GI50 in the assay with SNB-19 is < 0.0138 µM (active); in the assay on HCC 2998, 0.177 µM (active); with HCT-15, 0.267 µM; in the assay with M14 it was 0.0174 µM (active); in the assay with OVCAR-3, 0.277 µM (active); with OVCAR-5, 0.19 µM (active). For the same compound, the GI50 is 0.24 µM (active) in the assay with KM12; < 0.01 µM (active) in the assay with CAKI-1; < 0.01 µM (active) in the assay on MOLT-4; 0.0309 µM (active) in the assay with K562; 0.0281 µM (active) in the assay with SW-620; < 0.01 µM (active) in the assay on ACHN. Moreover, the GI50 in the assay on MDA-MB-231 is 2.1 µM (inactive); in the assay with SN12C, < 0.01 µM (active); with HOP-92, 0.0349 µM (active); in the assay on NCI-H23, < 0.0109 µM (active); with A498 it was 0.156 µM (active); with Malme-3M, 0.21 µM (active). In addition, the results for the GI50 in the assay with UACC-62 and with SK-MEL-2 were < 0.01 µM (active) and 0.288 µM (active), respectively.
